Data published in PubChem BioAssay (NCI).
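Cultured in 96-well plates, cells were exposed to test compound for 48 hours across five concentrations. At the GI50, growth is halved. TGI: total growth inhibition.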

Tests used:
Experiment in all cases: DTP human tumour cell line panel, 48 h
[1] = system: MOLT-4 leukemia
[2] = system: CAKI-1 renal
[3] = system: A498 renal
[4] = system: SF-268 CNS
[5] = system: COLO 205 colon
[6] = system: U251 CNS
[7] = system: BT-549 breast
[8] = system: HS 578T breast
[9] = system: OVCAR-8 ovarian
[10] = system: RXF 393 renal
[11] = system: HCC-2998 colon
[12] = system: OVCAR-5 ovarian
[13] = system: SK-OV-3 ovarian
[14] = system: UO-31 renal
[15] = system: UACC-257 melanoma
[16] = system: LOX IMVI melanoma
[17] = system: OVCAR-3 ovarian
[18] = system: NCI-H460 lung
[19] = system: KM12 colon
[20] = system: M14 melanoma
[21] = system: SK-MEL-28 melanoma
[22] = system: MCF7 breast
[23] = system: NCI-H23 lung
[24] = system: SF-539 CNS
[25] = system: MDA-MB-231 breast
[26] = system: SNB-75 CNS
[27] = system: CCRF-CEM leukemia
[28] = system: IGROV1 ovarian
[29] = system: SF-295 CNS
[30] = system: ACHN renal
[31] = system: MDA-MB-468 breast
[32] = system: SNB-19 CNS
[33] = system: SK-MEL-2 melanoma
[34] = system: SR leukemia
[35] = system: 786-0 renal
[36] = system: NCI-H522 lung
[37] = system: HOP-92 NSCLC
[38] = system: UACC-62 melanoma
[39] = system: K-562 leukemia
[40] = system: MDA-MB-435
[41] = system: SN12C renal
[42] = system: NCI-H226 lung
[43] = system: DU-145 prostate
[44] = system: EKVX NSCLC
[45] = system: A549 NSCLC
[46] = system: HCT-116 colon
[47] = system: MALME-3M melanoma
[48] = system: HCT-15 colon
[49] = system: OVCAR-4 ovarian
[50] = system: HT29 colon
[51] = system: SW-620 colon
[52] = system: SK-MEL-5 melanoma
[53] = system: RPMI-8226 leukemia
[54] = system: HL-60(TB) leukemia
[55] = system: PC-3 prostate
[56] = system: T-47D breast
[57] = system: HOP-62 NSCLC
[58] = system: TK-10 renal

CCOc1ccc(/C=N/NC(=O)Cn2nc(Cc3ccccc3)c3onc(C)c3c2=O)cc1
GI50 [1]: > 100 µM | TGI [1]: > 100 µM | GI50 [2]: 14 µM | TGI [2]: > 95.8 µM | GI50 [3]: 19.9 µM | TGI [3]: > 59.6 µM | GI50 [4]: 15.7 µM | TGI [4]: > 100 µM | GI50 [5]: > 100 µM | TGI [5]: > 100 µM | GI50 [6]: 9.01 µM | TGI [6]: > 100 µM | GI50 [7]: 13.5 µM | TGI [7]: > 24.8 µM | GI50 [8]: 3.57 µM | TGI [8]: > 25.6 µM | GI50 [9]: > 100 µM | TGI [9]: > 100 µM | GI50 [10]: 5.82 µM | TGI [10]: 22.5 µM | GI50 [11]: > 100 µM | TGI [11]: > 100 µM | GI50 [12]: > 100 µM | TGI [12]: > 100 µM | GI50 [13]: 13.8 µM | TGI [13]: > 66.8 µM | GI50 [14]: > 100 µM | TGI [14]: > 100 µM | GI50 [15]: > 100 µM | TGI [15]: > 100 µM | GI50 [16]: > 100 µM | TGI [16]: > 100 µM | GI50 [17]: > 100 µM | TGI [17]: > 100 µM | GI50 [18]: > 100 µM | TGI [18]: > 100 µM | GI50 [19]: > 100 µM | TGI [19]: > 100 µM | GI50 [20]: > 21.6 µM | TGI [20]: > 100 µM | GI50 [21]: > 100 µM | TGI [21]: > 100 µM | GI50 [22]: > 100 µM | TGI [22]: > 100 µM | GI50 [23]: 30.4 µM | TGI [23]: > 100 µM | GI50 [24]: 19.5 µM | TGI [24]: > 64.5 µM | GI50 [25]: 8.26 µM | TGI [25]: > 37.6 µM | GI50 [26]: 2.61 µM | TGI [26]: 13.8 µM | GI50 [27]: > 100 µM | TGI [27]: > 100 µM | GI50 [28]: 47.4 µM | TGI [28]: > 100 µM | GI50 [29]: 14.7 µM | TGI [29]: > 61 µM | GI50 [30]: 11.3 µM | TGI [30]: > 52.4 µM | GI50 [31]: 9.09 µM | TGI [31]: 44.6 µM | GI50 [32]: 16.3 µM | TGI [32]: > 52.4 µM | GI50 [33]: 15.5 µM | TGI [33]: 33.1 µM | GI50 [34]: > 100 µM | TGI [34]: > 100 µM | GI50 [35]: 5.99 µM | TGI [35]: 17.6 µM | GI50 [36]: > 31.3 µM | TGI [36]: > 87.2 µM | GI50 [37]: 5.71 µM | TGI [37]: 21.7 µM | GI50 [38]: > 19.9 µM | TGI [38]: > 100 µM | GI50 [39]: > 100 µM | TGI [39]: > 100 µM | GI50 [40]: > 100 µM | TGI [40]: > 100 µM | GI50 [41]: > 100 µM | TGI [41]: > 100 µM | GI50 [42]: 4.76 µM | TGI [42]: > 24.7 µM | GI50 [43]: > 100 µM | TGI [43]: > 100 µM | GI50 [44]: > 100 µM | TGI [44]: > 100 µM | GI50 [45]: > 100 µM | TGI [45]: > 100 µM | GI50 [46]: > 100 µM | TGI [46]: > 100 µM | GI50 [47]: 12 µM | TGI [47]: > 100 µM | GI50 [48]: > 100 µM | TGI [48]: > 100 µM | GI50 [49]: 2.93 µM | TGI [49]: > 100 µM | GI50 [50]: > 100 µM | TGI [50]: > 100 µM | GI50 [51]: > 100 µM | TGI [51]: > 100 µM | GI50 [52]: > 100 µM | TGI [52]: > 100 µM | GI50 [53]: > 100 µM | TGI [53]: > 100 µM | GI50 [54]: > 100 µM | TGI [54]: > 100 µM | GI50 [55]: > 100 µM | TGI [55]: > 100 µM | GI50 [56]: > 20.4 µM | TGI [56]: > 100 µM | GI50 [57]: 4.4 µM | TGI [57]: 28.4 µM | GI50 [58]: > 40.2 µM | TGI [58]: > 66.2 µM
